Experimental data reported in paper PMC12397098, “3-Monothiopomalidomide, a new immunomodulatory imide drug (IMiD), blunts inflammation and mitigates ischemic stroke in the rat” (GeroScience, 2025).
Where two headings read alike, the source gives them in different places.

Key:
[1] = Brain entry in rats (brain and plasma at 5 h); format: in vivo; settings: male, Fischer 344, rat, brain
Experimental: The animals were euthanized at 5 h post-dosing, and plasma and a brain sample were taken, frozen to − 80 °C, and later assayed for 3-MP by LC–MS/MS.
LC–MS/MS analysis was performed with a Vanquish Flex UHPLC (Thermo Scientific, Waltham MA, USA) and an Orbitrap Exploris 240 mass spectrometer (Thermo Scientific). Samples were separated on a C18 UHPLC column (100 mm × 2.1 mm, 3 μm; Thermo Scientific). The mobile phase A for LC separation was 0.1% formic acid and the mobile phase B was 0.1% formic acid in methanol. The chromatography gradient was initiated at 95% A and 5% B at zero time. This was continued for 1 min and, thereafter, linearly changed to 5% A and 95% B by 9 min. This was then maintained for a further 3 min. The flow rate was 0.3 mL/min, and the injection volume was 2 μl. Mass spectra were acquired using the data-dependent Top 4 MS2 (ddMS2) method with a mass scan (100–1000 m/z) and 120,000 MS resolution.

[2] = test system: MCAo-induced brain infarction; assay: MCAo ischemic stroke: brain infarct volume (TTC); format: in vivo, rat; settings: 3-MP 10.58 and 21.17 mg/kg I.P. (doses combined), 48 h
[3] = in vitro; settings: human, microsomes
[4] = test system: plasma TNF-α, IL-1β, IL-6, IL-10 in MCAo-challenged rats; assay: MCAo ischemic stroke: plasma cytokines at 48 h; format: in vivo; settings: rat MCAo, 3-MP I.P., plasma at 48 h
[5] = test system: human PBMCs; assay: LDH in media of LPS-challenged human PBMCs (cellular toxicity); format: cell-based; settings: 10 ng/ml LPS, 24 h, 3-MP 0 to 30 μM, vs LPS alone
Experimental: Human peripheral blood mononuclear cells (PBMCs), purchased from ATCC (Cat no. PCS-800–011, Lot no. 81215231, Manassas, VA, USA), were washed with ice-cold HBSS (ATCC 30–2213) containing 10% fetal bovine serum (FBS: ATCC 30–2020) and used for the experiment directly. The washed cells were suspended and maintained in RPMI media supplemented with 10% FBS, penicillin 100 U/mL, and streptomycin 100 µg/mL at 37 °C and 5% CO2. Approximately 5 × 10^5 cells were seeded into 24-well plates and allowed to equilibrate for 2 h. Pomalidomide or 3-MP, dissolved in 100% tissue culture grade dimethylsulfoxide (DMSO: Sigma Aldrich, St Louis, MO, USA), was then added to the wells. The final concentrations of drugs were 0.0, 0.6, 1.0, 10, 30, and 60 µM (n = 3–4 for each group). At 1 h after initiation of treatment, the cells were challenged with lipopolysaccharide (LPS, Sigma Aldrich, E.Coli 055:B5, Cat no. L4005-100MG, Lot no. 0000218759, Endotoxin Unit: 500,000 EU/mg, at a concentration of 10 ng/mL), and the media was collected after a further 24 h for evaluation of lactate dehydrogenase (LDH) activity as a marker of drug-induced cellular toxicity and concentrations of nitrite (In Vitro Toxicology Assay Kit, Lactic Dehydrogenase based, Promega, Cat no. G7891, Madison, WI, USA) (Griess Reagent System, Promega, Cat no. G2930) and TNF-α (human TNF-α ELISA MAX™ Deluxe Set Cat no. […]

[6] = Ex vivo plasma stability, rat; format: in vitro ADME; settings: 100 μg/ml, 37 °C, 180 min
Experimental: Ex vivo evaluations of drug plasma and liver microsomal time-dependent breakdown are routinely undertaken to initially characterize the metabolic stability of new pharmacological compounds and were performed by WuXi AppTec (Shanghai, China; Study No. 424847–20,211,214-MMS). Rat and human plasma and liver microsomes were purchased from Xenotech (Sprague Dawley rat, Catalog no. R1000; BioIVT, Westbury, NY) or Corning (mixed human, Catalog no. 452117; Sigma). Rat and human plasma was incubated at 37 °C on a shaker and spiked with 3-MP (100 μg/ml, n = 3). Thereafter, samples were time-dependently (0 to 180 min) removed, immediately frozen (− 80 °C), and subjected to LC–MS/MS analysis at a later time.

[7] = Pharmacokinetics in the rat, I.V. and P.O.; format: in vivo
Experimental: To evaluate the metabolism of 3-MP, ex vivo plasma and liver homogenate studies were performed across species (rat and human), and in vivo pharmacokinetic studies were performed in rats following intravenous (I.V.) and oral (P.O.) administration of 3-MP (5 mg/kg) to time-dependently follow its disappearance from the plasma compartment.
Fig. 5 3-MP pharmacokinetics. 3-MP was administered to rats via the intravenous (I.V.) and oral (P.O.) routes, and time-dependent plasma levels were obtained and subjected to LC–MS/MS analysis (n = 3/group). Pharmacokinetic profile of 3-MP following a 5 mg/kg dose by either the I.V. or P.O route. Time-dependent plasma concentrations of 3-MP (n = 3/group)

[8] = iv, rat plasma, I.V. bolus 5 mg/kg

Q: With `Nc1cccc2c1C(=S)N(C1CCC(=O)NC1=O)C2=O` (stereo not drawn) [3-MP, 3-Monothiopomalidomide] as the compound, how does the Kp at 5 h ([1]; ip, 13.25 mg/kg, 13.25 mg/kg I.P., read-out: Brain/plasma ratio) read?
A: 0.52

Q: And the Kp at 5 h ([1]; ip, 26.5 mg/kg, 26.5 mg/kg I.P., read-out: Brain/plasma ratio)?
A: 0.61

Q: And the Kp at 5 h ([1]; other: I.P. or P.O., 13.25 or 26.50 mg/kg I.P. or P.O., read-out: brain concentrations as % of concomitant plasma levels)?
A: 0.51 to 0.61

Q: What about the Kp at 5 h ([1]; other: I.P. or oral (P.O.), across I.P. and P.O. doses, read-out: brain/plasma concentration ratio) of the same compound?
A: 0.5 to 0.6

Q: And the Kp at 5 h ([1]; po, 26.5 mg/kg, 26.5 mg/kg P.O., read-out: Brain/plasma ratio)?
A: 0.51

Q: What about the infarct volume ([2]; rat MCAo 60 min + reperfusion, TTC) of the same compound?
A: 4.32 ± 1.33%

Q: And the “reduction of infarct volume versus MCAo + vehicle” value ([2]; rat MCAo)?
A: 56%

Q: And the CLint scaled at 1 μM [3]?
A: < 8.6 mL/min/kg

Q: And the half-life at 1 μM [3]?
A: > 2.42 h

Q: And the microsomal CLint at 1 μM [3]?
A: < 9.6 µL/min/mg

Q: What about the “MCAo-induced elevation in plasma IL-1β” value [4] of the same compound?
A: significantly mitigated

Q: And the “MCAo-induced elevation in plasma IL-6” value [4]?
A: significantly mitigated

Q: What about the “MCAo-induced elevation in plasma TNF-α” value [4] of the same compound?
A: significantly mitigated

Q: What about the “plasma anti-inflammatory IL-10 levels” value [4] of the same compound?
A: rise

Q: What about the LDH media levels [5] of the same compound?
A: without elevating

Q: What about the “stability in rat plasma” value [6] of the same compound?
A: relatively stable

Q: What about the AUC(0-inf) [7, 8] of the same compound?
A: 15200 ng·h/mL

Q: And the AUC(0-t) [7, 8]?
A: 15100 ng·h/mL

Q: What about the C0 [7, 8] of the same compound?
A: 8150 ng/mL

Q: What about the clearance ([7]; plasma, iv, rat, I.V. bolus 5 mg/kg) of the same compound?
A: 5.65 mL/min/kg

Q: And the Vd ([7]; plasma, iv, rat, I.V. bolus 5 mg/kg, read-out: Vdss)?
A: 0.693 L/kg

Q: And the AUC(0-inf) ([7]; po, rat plasma, P.O. 5 mg/kg)?
A: 5860 ng·h/mL

Q: What about the AUC(0-t) ([7]; po, rat plasma, P.O. 5 mg/kg) of the same compound?
A: 5560 ng·h/mL

Q: What about the Cmax ([7]; po, rat plasma, P.O. 5 mg/kg) of the same compound?
A: 1020 ng/mL

Q: And the T1/2 ([7]; rat plasma, P.O. 5 mg/kg, 5 mg/kg)?
A: 3.21 h

Q: What about the half-life ([7]; rat, plasma, iv, 5 mg/kg, rat plasma, I.V. bolus 5 mg/kg) of the same compound?
A: 1.56 h

Q: And the bioavailability ([7]; rat, plasma, oral, 5 mg/kg, rat, P.O. vs I.V., 5 mg/kg)?
A: ~38.5%

Q: And the half-life ([7]; rat, plasma, po, 5 mg/kg, rat plasma, P.O. 5 mg/kg)?
A: 3.2 h

Q: What about the Tmax ([7]; rat, plasma, po, 5 mg/kg, rat plasma, P.O. 5 mg/kg, read-out: Tmax) of the same compound?
A: 1.67 h

Q: And the Tmax ([7]; rat, plasma, po, 5 mg/kg, rat, oral gavage 5 mg/kg, read-out: time of peak concentration in plasma (converted))?
A: 1.67 h
